Laboratory results: patent publication US20090234097A1, “VASODILATOR” (CALPIS CO., LTD., priority 2006, published 2009)

Tested on: thoracic aorta ring of a Wistar rat
Assay: Vasodilating test on phenylephrine-preconstricted aorta ring (Magnus apparatus)
Conditions: at 10 mM (printed 10 mm); aorta ring preconstricted with 1 μM phenylephrine
Method: The thoracic aorta of a Wistar rat was taken out, cut into 2 mm long, and made into an aorta ring. The ring was set in a Magnus apparatus (product name “micro tissue organ bath MTB-1Z”, manufactured by LABO SUPPORT CO., LTD.), and allowed to equilibrate with a constant tension. The constriction response of the aorta ring was confirmed with 50 mM KCl.
Next, the aorta ring was preliminarily constricted with 1 μM phenylephrine, and VPP and IPP prepared in Synthesis Example were added at ten-fold increasing concentrations from 10^−9 M to observe the vasodilator response through the change in tension of the aorta ring. The dose dependency of the vasodilator response was also studied.
The vasodilating test was conducted in the same way as in Example 1, except that the tripeptides VPP and IPP were replaced with amino acids, valine (Val) and proline (Pro), at the same concentration.

| Compound | vasodilator response (change in tension of the aorta ring) |
| --- | --- |
| O=C(O)[C@@H]1CCCN1 [Pro, proline] | no vasodilator response was observed |
| CC(C)[C@H](N)C(=O)O [Val, valine] | no vasodilator response was observed |
